We go through 105 compounds from PubChem BioAssay AID1996.

A word on the solubility (kinetic): it is solubility judged after dilution from a stock solution rather than from solid.

Values after ≈ are worked out from the molar mass of the structure shown. Some results are limits rather than exact numbers.

The conditions of the data set: buffer; pH 7.4; 200.0 µM.
Compound `Cc1ccc(Cn2ccccc2=N)cc1.Cl` came in with a solubility (kinetic) greater than 35.2 µg/mL.

`Cl.c1ccc2c(N3CCOCC3)c3c(nc2c1)CCC3`: the solubility (kinetic) was greater than 43.6 µg/mL.

Compound `Cc1cnc(C(=O)NCCc2ccc(Cl)cc2)cn1` displayed a solubility (kinetic) of 36 µg/mL (≈ 131 µM).

As for `CCOC(=O)CSc1ccc2ccccc2n1`, the kinetic solubility was determined as 19.5 µg/mL (≈ 78.8 µM).

The compound `O=C(Nc1ccc(F)cc1)Nc1cccnc1` came in with a solubility (kinetic) greater than 34.7 µg/mL.

`C/C(Cl)=C\C[N+](C)(C)CC(=O)OCCc1ccccc1.[Br-]` yielded a solubility (kinetic) greater than 56.5 µg/mL.

`Cc1cccc(C)c1NC(=O)CSC(=S)N1CCCC1` yielded a kinetic solubility of 9.6 µg/mL (≈ 31.1 µM).

As to `CC(C)(C)c1ccc(C(=O)NC(=O)COC(=O)c2ccc(Br)o2)cc1`, the solubility (kinetic) was found to be 12.5 µg/mL (≈ 30.6 µM).

The compound `O=C(Nc1cccc(S(=O)(=O)N2CCOCC2)c1)c1ccc(=O)[nH]c1` had a solubility (kinetic) greater than 54.5 µg/mL.

Consider `COc1cc(OC)c(NC(=O)/C=C/C(=O)O)cc1Cl`, for which the kinetic solubility is greater than 42.9 µg/mL.

`CCN1CCc2c(OCC(=O)N3CCCc4ccccc43)cccc2C1=O` showed a kinetic solubility greater than 54.7 µg/mL.

In turn, `O=C(CN1CCOCC1)NCCc1ccccc1` had a solubility (kinetic) greater than 37.2 µg/mL.

As to `COc1ccc2cc(C3OCCO3)c(Cl)nc2c1`, the kinetic solubility came out at 32.1 µg/mL (≈ 121 µM).

The compound `O=C(Nc1ccccc1)Nc1ccc(Nc2ccccc2)cc1` displayed a solubility (kinetic) of less than 0.2 µg/mL.

On to `COc1cccc(CSc2nc(N)cc(N)n2)c1`, for which the solubility (kinetic) worked out at 28.6 µg/mL (≈ 109 µM).

Regarding `CNS(=O)(=O)c1cccc(C(=O)OC2CCOC2=O)c1` (stereo not given), the kinetic solubility is greater than 44.9 µg/mL.

`N#C/C(=C(/O)c1ccco1)c1nc2ccccc2s1` showed a solubility (kinetic) greater than 40.2 µg/mL.

With `Nc1ccc(NC(=O)NC2CCCCC2)cc1[N+](=O)[O-]`, the solubility (kinetic) came to 1.6 µg/mL (≈ 5.75 µM).

Regarding `N#Cc1cccc(C#N)c1Oc1ccc(S(=O)(=O)Nc2ccccc2)cc1`, the solubility (kinetic) was 18.4 µg/mL (≈ 49 µM).

Turning to `COc1ccc(C(C)(C)C)cc1NC(=O)c1ccc[n+]([O-])c1`, the kinetic solubility is greater than 45.1 µg/mL.

In turn, `CC1CC(=O)N(c2ccc(Br)cc2)C(=O)C1` yielded a kinetic solubility greater than 42.3 µg/mL.

As for `O=C(O)C1CCC(N2C(=O)C3C4CCC(C4)C3C2=O)CC1` (stereo not given), the kinetic solubility was greater than 43.7 µg/mL.

`Cc1cccc(NC(=S)NCc2ccccc2)c1C` gave a solubility (kinetic) of 35.1 µg/mL (≈ 130 µM).

Compound `O=C(CSc1nccc(=O)[nH]1)c1cc2ccccc2o1` gave a kinetic solubility greater than 42.9 µg/mL.

As for `OCCC1CN(C2CCC2)CCN1Cc1ccc(F)c(F)c1` (stereo not given), the solubility (kinetic) stood at 43 µg/mL (≈ 139 µM).

In the case of `Fc1ccccc1-c1nc(-c2cnccc2C(F)(F)F)no1`, the solubility (kinetic) is 8 µg/mL (≈ 25.9 µM).

In turn, `Cl.N=C(N)SCc1ccc(O)c([N+](=O)[O-])c1` yielded a solubility (kinetic) greater than 39.6 µg/mL.

`CC(=O)C1=C(O)C(=O)N(c2ccccn2)C1c1ccc(Cl)cc1` (stereo not given) showed a solubility (kinetic) of 40.9 µg/mL (≈ 124 µM).

With `N#Cc1ccc(OCC(=O)NCCCn2ccnc2)cc1`, the solubility (kinetic) was greater than 42.6 µg/mL.

With `O=C(O)CCC(=O)NNC(=O)c1ccc([N+](=O)[O-])cc1`, the solubility (kinetic) was greater than 42.2 µg/mL.

`COc1ccc(NC(=O)CCNC(=O)c2ccco2)c(OC)c1`: the kinetic solubility was greater than 47.7 µg/mL.

Take `Cc1ccc(C(=O)NC(=S)NCC2CCCO2)cc1[N+](=O)[O-]` (stereo not given): the kinetic solubility was greater than 48.5 µg/mL.

`Fc1ccc(CNC2CCN(Cc3ccccc3)CC2)cc1` had a kinetic solubility of 35.7 µg/mL (≈ 120 µM).

With `Cc1cccc(Nc2ccccc2C(=O)O)c1C`, the kinetic solubility is greater than 36.2 µg/mL.

`O=C(Nc1cccs1)Nc1cccnc1Cl` gave a solubility (kinetic) greater than 38.1 µg/mL.

As to `COc1ccc(S(=O)(=O)N2CCN(Cc3cccs3)CC2)cc1OC`, the solubility (kinetic) came out at 55.7 µg/mL (≈ 146 µM).

In turn, `CCOCCCNC(=O)/C(C#N)=C/c1ccccc1F` gave a solubility (kinetic) greater than 41.4 µg/mL.

Take `O=C(Nc1ccc(F)cc1)c1cccnn1`: the kinetic solubility is greater than 32.6 µg/mL.

Compound `O=C(Nc1ccccn1)c1sc2cc([N+](=O)[O-])ccc2c1Cl` displayed a kinetic solubility of 1.7 µg/mL (≈ 5.09 µM).

In the case of `CCOc1ccc(NC(=O)CC(Cc2cc(C)cc(C)c2)C(=O)O)cc1` (stereo not given), the kinetic solubility is greater than 53.3 µg/mL.

The compound `Cn1c(=O)c2c(ncn2CCC(=O)N/N=C/c2cccnc2)n(C)c1=O` yielded a kinetic solubility greater than 53.3 µg/mL.

Regarding `CC(=O)c1ccc(NC(=S)NCc2cccnc2)cc1`, the kinetic solubility is greater than 42.8 µg/mL.

With `COC(=O)c1cc(S(=O)(=O)N(C)C2CCCCC2)oc1C`, the solubility (kinetic) is 37.5 µg/mL (≈ 119 µM).

`CC(C)CC1(C)NC(=O)N(CC(=O)Nc2ccc3c(c2)OCCO3)C1=O` (stereo not given) registered a solubility (kinetic) greater than 54.2 µg/mL.

Take `CN(C)/N=C/c1ccc(N2CCOCC2)cc1`: the kinetic solubility is greater than 35 µg/mL.

In the case of `CC(=O)c1cn(CC(=O)Nc2ccccc2F)c2ccccc12`, the kinetic solubility was 9.4 µg/mL (≈ 30.3 µM).

With `O=Cc1c(NCCCN2CCCC2=O)c2ccccc2[nH]c1=O`, the solubility (kinetic) is greater than 47 µg/mL.

Turning to `CCOC(=O)c1cncc(O)c1`, the solubility (kinetic) was greater than 25.1 µg/mL.

Consider `COc1ccc(C(=O)C[n+]2ccc3ccccc3c2C)cc1.[Br-]`, for which the kinetic solubility came to 16.1 µg/mL.

The compound `CCc1ccccc1NC(=S)N(CCc1ccncc1)C(C)C` gave a kinetic solubility of 44 µg/mL (≈ 134 µM).

In the case of `CC(=O)Nc1ccc(OC(=O)Cc2ccc(Cl)cc2)cc1`, the kinetic solubility came out at 1.4 µg/mL (≈ 4.61 µM).

On to `O=C(/C=C/Nc1ccc(S(=O)(=O)Nc2ncccn2)cc1)c1ccc2ccccc2c1`, for which the kinetic solubility amounted to 2 µg/mL (≈ 4.65 µM).

For `COc1ccc(C)cc1S(=O)(=O)NCc1cccs1`, the kinetic solubility was found to be 42.4 µg/mL (≈ 143 µM).

On to `O=C(CN1CCN(c2ccccc2F)CC1)NCc1ccccc1`, for which the solubility (kinetic) was 40.8 µg/mL (≈ 125 µM).

In turn, `CC(=O)N1Cc2ccccc2CC1C(=O)N1CCN(c2ccccc2)CC1` (stereo not given) registered a solubility (kinetic) of 43.5 µg/mL (≈ 120 µM).

The compound `C[C@H](Cc1ccccc1)Nc1ncnc2c1ncn2[C@@H]1O[C@H](CO)[C@@H](O)[C@H]1O` registered a solubility (kinetic) greater than 57.8 µg/mL.

In turn, `CCOC(=O)Cn1c(=NC(=O)C(C)C)sc2c(C)cc(C)cc21` returned a solubility (kinetic) of less than 0.4 µg/mL.

Regarding `Cc1csc2c(=O)n(CCO)c(=O)[nH]c12`, the solubility (kinetic) is greater than 33.9 µg/mL.

The compound `Cc1ccc(-c2cnc(-c3ccccc3C(=O)O)o2)cc1` displayed a kinetic solubility of 35.2 µg/mL (≈ 126 µM).

Compound `O=C(CCNC(=O)c1ccccc1)NCc1ccccc1F` returned a solubility (kinetic) greater than 45 µg/mL.

Regarding `Cc1nc(CSc2n[nH]c(=O)n2-c2cccc(F)c2)cs1`, the kinetic solubility was greater than 48.4 µg/mL.

With `O=C(CCSCc1ccc(Cl)cc1)NCc1cccs1`, the solubility (kinetic) was 28.3 µg/mL (≈ 86.8 µM).

`Cc1ccc(S(=O)(=O)CCC(=O)Nc2cccc(Cl)c2)cc1` gave a kinetic solubility of 23.9 µg/mL (≈ 70.7 µM).

Consider `O=C(O)c1ccc([N+](=O)[O-])c(CS(=O)(=O)c2ccccc2)c1`, for which the kinetic solubility is greater than 48.2 µg/mL.

In turn, `Cc1ccc(S(=O)(=O)NCc2ccccc2C)cc1` gave a kinetic solubility of 20.4 µg/mL (≈ 74.1 µM).

For the compound `COc1cccc(C(=O)O/N=C(\N)c2ccccn2)c1`, the solubility (kinetic) is greater than 40.7 µg/mL.

`O=C(O)/C(=C\c1ccco1)NC(=O)c1ccc(Br)o1` yielded a solubility (kinetic) greater than 48.9 µg/mL.

Compound `CCN(CC)C(=O)c1cc(-c2ccc3c(c2)OCO3)on1` had a solubility (kinetic) of 20.8 µg/mL (≈ 72.1 µM).

`C/C(=N/NC(=O)c1ccncc1)c1ccc2c(c1)OCO2` displayed a kinetic solubility greater than 42.5 µg/mL.

Turning to `CCCN(CCC)C(=O)c1cc2c(=O)[nH]c3ccc(C)cc3c2s1`, the solubility (kinetic) is less than 0.4 µg/mL.

As to `CN1CC(=O)N(CC(=O)Nc2cccc3ccccc23)C1=O`, the solubility (kinetic) was greater than 44.6 µg/mL.

In turn, `CC(=O)N/C(N)=N/c1nc(=O)c2ccccc2s1` returned a solubility (kinetic) of 3.5 µg/mL (≈ 13.3 µM).

`O=C(NCc1ccccc1)C1CCN(C(=O)Cc2ccccc2)CC1` displayed a kinetic solubility greater than 50.5 µg/mL.

Compound `CC(=O)c1cccc(OCC(=O)NC2CCCCCC2)c1` showed a solubility (kinetic) greater than 43.4 µg/mL.

In turn, `CCCNC(=O)CSc1nc2ccccc2c(=O)n1CCC` yielded a solubility (kinetic) of 27.1 µg/mL (≈ 84.8 µM).

With `CC1(C)C2CCC(C2)C1(C)NC(=O)C[N+](C)(C)C.[Cl-]` (stereo not given), the solubility (kinetic) came out at 43.2 µg/mL.

In turn, `Cc1nn(C)cc1S(=O)(=O)Nc1ccc(F)c(F)c1` yielded a kinetic solubility greater than 43.1 µg/mL.

Compound `Cn1c(=O)[nH]c(=O)c2c1nc(N1CCNCC1)n2Cc1ccccc1` gave a kinetic solubility of 45.8 µg/mL (≈ 135 µM).

In turn, `Cc1cn(CCOc2ccc(Cl)cc2)c(=O)[nH]c1=O` displayed a kinetic solubility of 36.8 µg/mL (≈ 131 µM).

Consider `Cc1ccsc1C(=O)OCC(=O)NCc1ccccc1`, for which the solubility (kinetic) worked out at 10.9 µg/mL (≈ 37.7 µM).

The compound `CC1Cc2ccccc2N1C(=O)Cn1cc([N+](=O)[O-])ccc1=O` (stereo not given) returned a solubility (kinetic) greater than 47 µg/mL.

As for `O=C(Nc1cccc(O)c1)c1cccc(C(=O)Nc2cccc(O)c2)c1`, the solubility (kinetic) came out at 1.8 µg/mL (≈ 5.17 µM).

For the compound `CC(C)NCC(=O)Nc1c2c(nc3ccccc13)CCC2.O=C(O)C(=O)O`, the solubility (kinetic) is greater than 56 µg/mL.

`CCc1ccc2nc(/N=C(\N)NC(=O)c3ccccc3)nc(C)c2c1` returned a solubility (kinetic) of less than 0.1 µg/mL.

The compound `CC(C)CNC(=O)CC1Nc2ccccc2NC1=O` (stereo not given) showed a kinetic solubility of 38.8 µg/mL (≈ 148 µM).

The compound `O=C(NCc1ccccc1Cl)C1CCN(C(=O)c2ccco2)CC1` displayed a solubility (kinetic) greater than 52 µg/mL.

As to `Nc1ccccc1SCC(=O)Nc1ccc2c(c1)OCO2`, the solubility (kinetic) was greater than 45.4 µg/mL.

For `CC(=O)Nc1ccc(S(=O)(=O)NCC2CCCO2)cc1` (stereo not given), the solubility (kinetic) was greater than 44.8 µg/mL.

As to `CCNC(=O)NC(=O)C(C)OC(=O)c1cccn1C` (stereo not given), the kinetic solubility is greater than 40.1 µg/mL.

Regarding `COC(=O)c1sccc1NC(=O)CSCCc1ccccn1`, the kinetic solubility was greater than 50.5 µg/mL.

With `O=C(COC(=O)c1ccc2c(c1)OCO2)Nc1ccccc1OC(F)F`, the solubility (kinetic) was 3.7 µg/mL (≈ 10.1 µM).

Turning to `Nc1ccc(C(=O)[O-])cc1.O.[Na+]`, the kinetic solubility is greater than 26.6 µg/mL.

Regarding `CC1CCCC(NC(=O)CCNC(=O)c2ccc([N+](=O)[O-])cc2)C1C` (stereo not given), the solubility (kinetic) is greater than 52.1 µg/mL.

Compound `COc1cc([N+](=O)[O-])cc2sc(NC(C)=O)nc12` yielded a solubility (kinetic) of 2.7 µg/mL (≈ 10.1 µM).

With `COc1cc(C)c(CN2CCSCC2)cc1C`, the kinetic solubility was 12.1 µg/mL (≈ 48.1 µM).

In the case of `COCCSc1ccccc1C(=O)N1CCc2ccccc21`, the solubility (kinetic) was 44.5 µg/mL (≈ 142 µM).

`CC1CCCCN1C(=O)CSc1nc(C2CC2)nc2ccccc12` (stereo not given) returned a solubility (kinetic) greater than 51.2 µg/mL.

Turning to `O=C(NC(=S)N1CCCC1)c1ccccc1`, the kinetic solubility was greater than 35.1 µg/mL.

In turn, `COc1cc(CNCC2CCCO2)ccc1OCC(N)=O.Cl` (stereo not given) registered a solubility (kinetic) of 49 µg/mL.

In the case of `COc1ccc(C(C)NC(=O)Nc2ccc(C(C)=O)cc2)cc1OC` (stereo not given), the kinetic solubility is 47 µg/mL (≈ 137 µM).

As for `Clc1ccc(-c2nc(C3CCCCC3)no2)cc1`, the kinetic solubility was less than 0.3 µg/mL.

Take `O=C(Nc1nc2ccccc2[nH]1)c1cc2ccccc2o1`: the solubility (kinetic) worked out at 2.1 µg/mL (≈ 7.57 µM).

For `CCCC(=O)Nc1nc(CC(=O)OCC)cs1`, the kinetic solubility is greater than 38.4 µg/mL.

Take `CC(=O)c1sc(-c2ccc(Cl)cc2)nc1C`: the solubility (kinetic) was less than 0.5 µg/mL.

With `COc1cc(C(=O)OCC(=O)NCC2CCCO2)cc(OC)c1OC` (stereo not given), the solubility (kinetic) was greater than 53 µg/mL.
